We go through two compounds from US12540297B2, “Microfluidic device for cerebrovascular simulation and high-efficiency blood-brain barrier simulation system comprising same” (CELLARTGEN INC., priority 2018, dated 2026).

One assay relates to Cryptococcus neoformans. Kind of assay: Multi-organ hNVU chip fungal neuroaffinity with inositol supplementation. Format: cell-based. The conditions noted are these: 200 mg/ml inositol added only to liver unit, 1 day after inoculation. Here is the method: NSC, PC and EC were seeded in the same manner as described above for fabrication of the hNVU chip system, and 8×10^6 Huh-7 cells/ml encapsulated in a BMEM hydrogel were seeded in a central channel of a liver unit of the multi-organ hNVU chip. CFW-labeled fungal cells were injected through an upper reservoir of the liver unit so that the fungi were not affected by factors secreted from a brain unit. Simultaneously with fungal inoculation, inositol (200 mg/ml, Duchefa, RV Haarlem, Netherlands) was added only to a lower channel of the liver unit.

Assay [1] concerns EC layer of BBB in hNVU chip (NSC-EC-PC/flow group). Nature of the assay: BBB permeability response to TNF-α exposure in hNVU chip. The conditions noted are these: 20 ng/ml TNF-α. It is filed as cell-based, human. How it is done:
In order to evaluate BBB permeability, the hNVU chip was placed horizontally on the substrate, and both EC and medium channels were filled with PBS to match the surface levels and homogenize the pressure applied to a 3D matrix. […] Vascular permeability was evaluated by the flow rate of the solute across the EC barrier according to the reference method. […] Vascular barrier permeability (Pv) was induced by using the mean intensity of blood vessels (Iv) and tissues (NSC gel, IT) at two different time points t1 and t2, according to Equation 6 calculated by Image J software. Here, Δt, V and Asurface are approximated by the mean morphology of the EC layer in the hNVU chip in the 3D confocal image and represent the time between two images in a selected region of interest, the NSC gel volume, and the surface area of the EC layer, respectively.

As to `O[C@H]1[C@H](O)[C@@H](O)[C@H](O)[C@@H](O)[C@H]1O` [inositol], in the assay with Cryptococcus neoformans, the “fungal invasion into the liver unit through the EC barrier” value was “did not increase fungal invasion” and the “level of neuroaffinity of C. neoformans” value is “reduced the level of neuroaffinity”.
TNF-α: the “increase of permeability of the EC layer to 70 kDa FITC-dextran” value in assay [1] is “about 2.8 times”.
